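Compound exposure: 48 hours, 5 concentrations, 96-well plates. GI50 = concentration required for 50% inhibition of growth.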 Activity calls are given as the source filed them. No stated cut-off is given here; in the data, active = GI50 up to about 1.1 µM and inactive = higher.
Key:
Experiment in all cases: NCI-60 cell line screen, 48 h
[1] = tested on: MDA-MB-435
[2] = tested on: CAKI-1
[3] = tested on: HOP-62
[4] = tested on: HL-60
[5] = tested on: SF-295
[6] = tested on: OVCAR-8
[7] = tested on: NCI-H23
[8] = tested on: SN12C
[9] = tested on: K562
[10] = tested on: NCI-H522
[11] = tested on: NCI-H460
[12] = tested on: HCT-15
[13] = tested on: HOP-92
[14] = tested on: HCT-116
[15] = tested on: NCI-H226
[16] = tested on: UO-31
[17] = tested on: NCI/ADR-RES
[18] = tested on: Malme-3M
[19] = tested on: SF-539
[20] = tested on: U-251

Compound | GI50 [1] | GI50 [2] | GI50 [3] | GI50 [4] | GI50 [5] | GI50 [6] | GI50 [7] | GI50 [8] | GI50 [9] | GI50 [10] | GI50 [11] | GI50 [12] | GI50 [13] | GI50 [14] | GI50 [15] | GI50 [16] | GI50 [17] | GI50 [18] | GI50 [19] | GI50 [20]
COC(=O)Nc1nc2cc(NS(=O)(=O)c3cccs3)ccc2[nH]1 | 3.62 µM (inactive) | 30.4 µM (inactive) | 26.4 µM (inactive) | 23 µM (inactive) | 24.9 µM (inactive) | 36.4 µM (inactive) | 30.5 µM (inactive) | 39.1 µM (inactive) | 5.53 µM (inactive) | 6.55 µM (inactive) | 32.2 µM (inactive) | 14.3 µM | 16.3 µM (inactive) | 18.4 µM (inactive) | 32.2 µM (inactive) | 30.1 µM (inactive) | 25.1 µM (inactive) | 10.4 µM (inactive) | 29.2 µM (inactive) | 30.4 µM (inactive)
NC(Cc1ccc(OCc2ccccc2)cn1)C(=O)OCc1ccccc1 (stereo not given) | > 100 µM (inactive) | > 100 µM (inactive) | > 100 µM (inactive) | > 100 µM (inactive) | > 100 µM (inactive) | > 100 µM (inactive) | > 100 µM (inactive) | > 100 µM (inactive) | > 100 µM (inactive) | > 100 µM (inactive) | > 100 µM (inactive) | > 100 µM | > 100 µM (inactive) | > 100 µM (inactive) | > 100 µM (inactive) | > 100 µM (inactive) | > 100 µM (inactive) | > 100 µM (inactive) | > 100 µM (inactive) | > 100 µM (inactive)
Cc1ccc(C)c(NC(=O)NCc2ccc(Cl)cc2)c1 | > 100 µM (inactive) | 27.2 µM (inactive) | 9.31 µM (inactive) | > 100 µM (inactive) | 16.7 µM (inactive) | 34.9 µM (inactive) | 35.7 µM (inactive) | 36.3 µM (inactive) | 47.5 µM (inactive) | 24.9 µM (inactive) | > 85.3 µM (inactive) | > 100 µM | 18.3 µM (inactive) | 35.3 µM (inactive) | 38.2 µM (inactive) | 31 µM (inactive) | > 58.1 µM (inactive) | 26.8 µM (inactive) | > 100 µM (inactive) | 17.7 µM (inactive)
COC(=O)c1ccccc1/C=C1\Cc2ccc(C)c(C)c2C1=O | > 100 µM (inactive) | > 100 µM (inactive) | 59.8 µM (inactive) | > 100 µM (inactive) | 77.8 µM (inactive) | > 100 µM (inactive) | > 100 µM (inactive) | > 100 µM (inactive) | > 100 µM (inactive) | 65.5 µM (inactive) | > 100 µM (inactive) | > 100 µM | 34.2 µM (inactive) | > 100 µM (inactive) | > 100 µM (inactive) | > 100 µM (inactive) | > 100 µM (inactive) | > 100 µM (inactive) | > 100 µM (inactive) | 48.6 µM (inactive)
COc1cccc2c1C(=O)C1=C(C2=O)C(O)CC(C)(C)O1 (stereo not given) | 20 µM (inactive) | 50.7 µM (inactive) | > 100 µM (inactive) | 11.7 µM (inactive) | 70.3 µM (inactive) | 27.7 µM (inactive) | 28.5 µM (inactive) | 32.5 µM (inactive) | 21 µM (inactive) | 26.2 µM (inactive) | 42.9 µM (inactive) | 38.6 µM | 53.2 µM (inactive) | 24 µM (inactive) | > 100 µM (inactive) | 58.9 µM (inactive) | 28.7 µM (inactive) | 16.6 µM (inactive) | 37.9 µM (inactive) | 32.4 µM (inactive)
CCN(CC)c1ccc2cc(C(=O)NCc3ccccc3)c(=N)oc2c1 | 6.7 µM (inactive) | > 44.8 µM (inactive) | 59.8 µM (inactive) | 39.1 µM (inactive) | 27.5 µM (inactive) | 37.7 µM (inactive) | 31.1 µM (inactive) | > 100 µM (inactive) | 3.86 µM (inactive) | 9.59 µM (inactive) | 28.2 µM (inactive) | 9.27 µM | 22.1 µM (inactive) | 39 µM (inactive) | > 89.5 µM (inactive) | > 26.6 µM (inactive) | 0.912 µM (active) | 15.2 µM (inactive) | 46.3 µM (inactive) | 27.7 µM (inactive)
O=c1[nH]nc(Cc2ccccc2)n1/N=C/c1ccc([N+](=O)[O-])o1 | 1.57 µM (inactive) | 3.11 µM (inactive) | 3.08 µM (inactive) | 2.95 µM (inactive) | 7.62 µM (inactive) | 2.16 µM (inactive) | 3.57 µM (inactive) | 3.31 µM (inactive) | 4.09 µM (inactive) | 1.39 µM (inactive) | 3.46 µM (inactive) | 2.08 µM | 3.03 µM (inactive) | 2.06 µM (inactive) | 12.5 µM (inactive) | 4.47 µM (inactive) | 2.75 µM (inactive) | 1.51 µM (inactive) | 2.11 µM (inactive) | 2.87 µM (inactive)
Cn1ccnc1Sc1ccc(/C=N/c2ccc3nc(SCC(=O)NC4CCCCC4)sc3c2)cc1[N+](=O)[O-] | > 100 µM (inactive) | > 100 µM (inactive) | 28.4 µM (inactive) | > 100 µM (inactive) | 13.2 µM (inactive) | > 100 µM (inactive) | 37.5 µM (inactive) | > 100 µM (inactive) | > 100 µM (inactive) | 65.9 µM (inactive) | > 100 µM (inactive) | > 100 µM | 12.1 µM (inactive) | 25.9 µM (inactive) | > 100 µM (inactive) | > 100 µM (inactive) | > 100 µM (inactive) | > 100 µM (inactive) | 5.68 µM (inactive) | 8.09 µM (inactive)
C/C1=C/C(C)CC(C)OC(=O)C(C)NC(=O)C(Cc2ccc(O)c(I)c2)N(C)C(=O)C(C)NC(=O)C(C)C1 (stereo not given) | < 0.01 µM (active) | < 0.01 µM (active) | < 0.01 µM (active) | < 0.01 µM (active) | < 0.0316 µM (active) | 0.0354 µM (active) | 0.311 µM (active) | < 0.0249 µM (active) | < 0.01 µM (active) | < 0.01 µM (active) | < 0.01 µM (active) | < 0.0164 µM | < 0.0134 µM (active) | < 0.01 µM (active) | < 0.0363 µM (active) | 0.0127 µM (active) | 0.026 µM (active) | < 0.0242 µM (active) | < 0.01 µM (active) | < 0.01 µM (active)
COc1cc(/C=C\c2nnc(/C=C\c3ccc(O)c(OC)c3)s2)ccc1O | 0.495 µM (active) | 4.62 µM (inactive) | 5.65 µM (inactive) | 1.64 µM (inactive) | 3.48 µM (inactive) | 3.78 µM (inactive) | 2.45 µM (inactive) | 4.31 µM (inactive) | 1.77 µM (inactive) | 1.67 µM (inactive) | 3.09 µM (inactive) | 1.49 µM | 4.79 µM (inactive) | 2.36 µM (inactive) | 7.28 µM (inactive) | 3.47 µM (inactive) | 1.6 µM (inactive) | 2.11 µM (inactive) | 2.44 µM (inactive) | 3.06 µM (inactive)
CC1=[N+](C)CCCN1C | > 100 µM (inactive) | > 100 µM (inactive) | > 100 µM (inactive) | > 100 µM (inactive) | > 100 µM (inactive) | > 100 µM (inactive) | > 100 µM (inactive) | > 100 µM (inactive) | > 100 µM (inactive) | > 100 µM (inactive) | > 100 µM (inactive) | > 100 µM | > 100 µM (inactive) | > 100 µM (inactive) | > 100 µM (inactive) | > 100 µM (inactive) | > 100 µM (inactive) | > 100 µM (inactive) | > 100 µM (inactive) | > 100 µM (inactive)
N/N=C(/C=C1\C(=O)Nc2ccccc21)c1ccccc1 | 4.15 µM (inactive) | 24.3 µM (inactive) | 32.9 µM (inactive) | 3.8 µM (inactive) | 21.4 µM (inactive) | 24 µM (inactive) | 30.1 µM (inactive) | 26.3 µM (inactive) | 5.45 µM (inactive) | 27.9 µM (inactive) | 28.6 µM (inactive) | 8.43 µM | 24.5 µM (inactive) | 15.3 µM (inactive) | 45.8 µM (inactive) | 32.2 µM (inactive) | 18.2 µM (inactive) | 23.5 µM (inactive) | 18.7 µM (inactive) | 24.4 µM (inactive)
